Measurements reported in patent publication US20240116892A1, “HETEROCYCLIC AMIDE AND UREA COMPOUNDS AS JAK2 INHIBITORS” (Ajax Therapeutics, Inc., priority 2022, published 2024).

Target: JAK2 (JH1 domain-catalytic, Y1007F, Y1008F) kinase (Homo sapiens (Human), UniProt O60674, Y1007F/Y1008F)
Assay: JAK2 JH1 Domain Binding Assay
Details: qPCR readout
Summary of the method: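 JH1 catalytic domain (Y1007F/Y1008F) expressed as NFkB DNA-binding-domain fusion in HEK293 cells, DNA-tagged. Competition with immobilized biotinylated ligand on streptavidin beads, 1 h at RT in PBS/Tween/BSA/DTT; bound kinase eluted with free ligand and quantified by qPCR.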

Sequence of JAK2 (JH1 domain-catalytic, Y1007F, Y1008F) kinase (O60674 849-1124 Y1007F/Y1008F): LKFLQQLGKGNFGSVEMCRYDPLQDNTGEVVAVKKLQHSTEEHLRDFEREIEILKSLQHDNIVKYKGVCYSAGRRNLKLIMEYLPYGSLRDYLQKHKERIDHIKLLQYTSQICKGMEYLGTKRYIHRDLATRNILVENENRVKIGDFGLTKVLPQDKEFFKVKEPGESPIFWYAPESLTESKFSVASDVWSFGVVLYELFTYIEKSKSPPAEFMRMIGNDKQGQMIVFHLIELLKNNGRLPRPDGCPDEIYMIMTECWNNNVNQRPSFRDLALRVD

Structure (SMILES) | Kd
CO[C@@H]1CN(c2cnc3[nH]nc(N(C)C)c3c2)CC[C@H]1N(C)C(=O)Nc1cc(C(F)(F)F)cn(C)c1=O [Example I-115-a, 1-((3R,4R)-1-(3-(dimethylamino)-1/-pyrazolo[3,4-b]pyridin-5-yl)-3-methoxypiperidin-4-yl)-1-methyl-3-(1-methyl-2-oxo-5-(trifluoromethyl)-1,2-dihydropyridin-3-yl)urea] | 10 to 50 nM
CO[C@H]1CN(c2cnc3[nH]nc(N(C)C)c3c2)CC[C@@H]1N(C)C(=O)Nc1cc(C(F)(F)F)cn(C)c1=O [Example I-115-b, 1-((3S,4S)-1-(3-(dimethylamino)-1H-pyrazolo[3,4-b]pyridin-5-yl)-3-methoxypiperidin-4-yl)-1-methyl-3-(1-methyl-2-oxo-5-(trifluoromethyl)-1,2-dihydropyridin-3-yl)urea] | 50 to 1000 nM
CO[C@@H]1CN(c2cnc3[nH]c(C)cc3n2)CC[C@H]1N(C)C(=O)Nc1cc(C(F)(F)F)cn(C)c1=O [Example I-117-a, 1-((3R,4R)-3-methoxy-1-(6-methyl-5H-pyrrolo[2,3-b]pyrazin-2-yl)piperidin-4-yl)-1-methyl-3-(1-methyl-2-oxo-5-(trifluoromethyl)-1,2-dihydropyridin-3-yl)urea] | 50 to 1000 nM
CO[C@H]1CN(c2cnc3[nH]c(C)cc3n2)CC[C@@H]1N(C)C(=O)Nc1cc(C(F)(F)F)cn(C)c1=O [Example I-117-b, 1-((3S,4S)-3-methoxy-1-(6-methyl-5H-pyrrolo[2,3-b]pyrazin-2-yl)piperidin-4-yl)-1-methyl-3-(1-methyl-2-oxo-5-(trifluoromethyl)-1,2-dihydropyridin-3-yl)urea] | 50 to 1000 nM
CO[C@@H]1CN(c2cnc3[nH]cc(C)c3n2)CC[C@H]1N(C)C(=O)Nc1cc(C(F)(F)F)cn(C)c1=O [Example I-118-a, 1-((3R,4R)-3-methoxy-1-(7-methyl-5H-pyrrolo[2,3-b]pyrazin-2-yl)piperidin-4-yl)-1-methyl-3-(1-methyl-2-oxo-5-(trifluoromethyl)-1,2-dihydropyridin-3-yl)urea] | 10 to 50 nM
CO[C@H]1CN(c2cnc3[nH]cc(C)c3n2)CC[C@@H]1N(C)C(=O)Nc1cc(C(F)(F)F)cn(C)c1=O [Example I-118-b, 1-((3S,4S)-3-methoxy-1-(7-methyl-5H-pyrrolo[2,3-b]pyrazin-2-yl)piperidin-4-yl)-1-methyl-3-(1-methyl-2-oxo-5-(trifluoromethyl)-1,2-dihydropyridin-3-yl)urea] | 50 to 1000 nM
CO[C@H]1C[C@H](n2[nH]c3ncc(N4CCC(N(C)C(=O)Nc5cc(C(F)(F)F)cn(C)c5=O)CC4)cc3c2=O)C1 [Example I-119, 1-(1-(2-((1r,3r)-3-methoxycyclobutyl)-3-oxo-2,3-dihydro-1H-pyrazolo[3,4-b]pyridin-5-yl)piperidin-4-yl)-1-methyl-3-(1-methyl-2-oxo-5-(trifluoromethyl)-1,2-dihydropyridin-3-yl)urea] | 1000 to 5000 nM
Cn1cc(C(F)(F)F)cc(NC(=O)N(C)[C@H]2CC[C@H](c3cnc4[nH]ccc4n3)CC2)c1=O [Example I-120-a, trans-1-(4-(5H-pyrrolo[2,3-b]pyrazin-2-yl)cyclohexyl)-1-methyl-3-(1-methyl-2-oxo-5-(trifluoromethyl)-1,2-dihydropyridin-3-yl)urea] | 50 to 1000 nM
COCc1cc2nc(N3CC[C@H](N(C)C(=O)Nc4cc(C(F)(F)F)cn(C)c4=O)C[C@@H]3C)cnc2[nH]1 [Example I-127-a, 1-((2S,4S)-1-(6-(methoxymethyl)-5H-pyrrolo[2,3-b]pyrazin-2-yl)-2-methylpiperidin-4-yl)-1-methyl-3-(1-methyl-2-oxo-5-(trifluoromethyl)-1,2-dihydropyridin-3-yl)urea] | 50 to 1000 nM
COCc1cc2nc(N3CC[C@@H](N(C)C(=O)Nc4cc(C(F)(F)F)cn(C)c4=O)C[C@H]3C)cnc2[nH]1 [Example I-127-b, 1-((2R,4R)-1-(6-(methoxymethyl)-5H-pyrrolo[2,3-b]pyrazin-2-yl)-2-methylpiperidin-4-yl)-1-methyl-3-(1-methyl-2-oxo-5-(trifluoromethyl)-1,2-dihydropyridin-3-yl)urea] | 50 to 1000 nM
Cn1cc(C(F)(F)F)cc(NC(=O)N2CCO[C@H]3CN(c4cnc5[nH]ccc5n4)CC[C@@H]32)c1=O [Example I-128-a, (4aS,8aS)-N-(1-methyl-2-oxo-5-(trifluoromethyl)-1,2-dihydropyridin-3-yl)-6-(5H-pyrrolo[2,3-b]pyrazin-2-yl)octahydro-1H-pyrido[3,4-b][1,4]oxazine-1-carboxamide] | 10 to 50 nM
CN(C(=O)Nc1cc(C(F)(F)F)cn(C)c1=O)C1CCN(c2cnn3cc(O[C@@H]4CC[C@H]4O)ncc23)CC1 [Example I-129-a, 1-(1-(6-((1R,2R)-2-hydroxycyclobutoxy)pyrazolo[1,5-a]pyrazin-3-yl)piperidin-4-yl)-1-methyl-3-(1-methyl-2-oxo-5-(trifluoromethyl)-1,2-dihydropyridin-3-yl)urea] | < 10 nM
CN(C(=O)Nc1cc(C(F)(F)F)cn(C)c1=O)C1CCN(c2cnn3cc(O[C@H]4CC[C@@H]4O)ncc23)CC1 [Example I-129-b, 1-(1-(6-((1S,2S)-2-hydroxycyclobutoxy)pyrazolo[1,5-a]pyrazin-3-yl)piperidin-4-yl)-1-methyl-3-(1-methyl-2-oxo-5-(trifluoromethyl)-1,2-dihydropyridin-3-yl)urea] | < 10 nM
CO[C@H]1C[C@@H](n2[nH]c3ncc(N4CCC(N(C)C(=O)Nc5cc(C(F)(F)F)cn(C)c5=O)CC4)cc3c2=O)C1 [Example I-130, 1-(1-(2-((1s,3s)-3-methoxycyclobutyl)-3-oxo-2,3-dihydro-1H-pyrazolo[3,4-b]pyridin-5-yl)piperidin-4-yl)-1-methyl-3-(1-methyl-2-oxo-5-(trifluoromethyl)-1,2-dihydropyridin-3-yl)urea] | 50 to 1000 nM

Continued, values first:

Kd | Structure (SMILES)
< 10 nM | CN(C(=O)Nc1cc(C(F)(F)F)cn(C)c1=O)[C@H]1CCN(c2cnc3[nH]nc(OC4CCOCC4)c3c2)C[C@@H]1F [Example I-114-a, 1-((3S,4S)-3-fluoro-1-(3-((tetrahydro-2H-pyran-4-yl)oxy)-1H-pyrazolo[3,4-b]pyridin-5-yl)piperidin-4-yl)-1-methyl-3-(1-methyl-2-oxo-5-(trifluoromethyl)-1,2-dihydropyridin-3-yl)urea]
< 10 nM | CN(C(=O)Nc1cc(C(F)(F)F)cn(C)c1=O)[C@@H]1CCN(c2cnc3[nH]nc(OC4CCOCC4)c3c2)C[C@H]1F [Example I-114-b, 1-((3R,4R)-3-fluoro-1-(3-((tetrahydro-2H-pyran-4-yl)oxy)-1H-pyrazolo[3,4-b]pyridin-5-yl)piperidin-4-yl)-1-methyl-3-(1-methyl-2-oxo-5-(trifluoromethyl)-1,2-dihydropyridin-3-yl)urea]
< 10 nM | CN(C(=O)Nc1cc(C(F)(F)F)cn(C)c1=O)C12CC(c3cnc4[nH]ncc4c3)(C1)C2 [Example I-116, 1-(3-(1H-pyrazolo[3,4-b]pyridin-5-yl)bicyclo[1.1.1]pentan-1-yl)-1-methyl-3-(1-methyl-2-oxo-5-(trifluoromethyl)-1,2-dihydropyridin-3-yl)urea]
< 10 nM | Cn1cc(C(F)(F)F)cc(NC(=O)N(C)[C@H]2CC[C@@H](c3cnc4[nH]ccc4n3)CC2)c1=O [Example I-120-b, cis-1-(4-(5H-pyrrolo[2,3-b]pyrazin-2-yl)cyclohexyl)-1-methyl-3-(1-methyl-2-oxo-5-(trifluoromethyl)-1,2-dihydropyridin-3-yl)urea]
< 10 nM | CN(C(=O)Nc1cc(C(F)(F)F)cn(C)c1=O)C1CCN(c2cnc3[nH]cc(N4CCOCC4)c3n2)CC1 [Example I-124, 1-methyl-3-(1-methyl-2-oxo-5-(trifluoromethyl)-1,2-dihydropyridin-3-yl)-1-(1-(7-morpholino-5H-pyrrolo[2,3-b]pyrazin-2-yl)piperidin-4-yl)urea]
< 10 nM | CNc1n[nH]c2ncc(N3CC[C@@H](N(C)C(=O)Nc4cc(C(F)(F)F)cn(C)c4=O)C(F)(F)C3)cc12 [Example I-125-a, (R)-1-(3,3-difluoro-1-(3-(methylamino)-1H-pyrazolo[3,4-b]pyridin-5-yl)piperidin-4-yl)-1-methyl-3-(1-methyl-2-oxo-5-(trifluoromethyl)-1,2-dihydropyridin-3-yl)urea]
< 10 nM | CNc1n[nH]c2ncc(N3CC[C@H](N(C)C(=O)Nc4cc(C(F)(F)F)cn(C)c4=O)C(F)(F)C3)cc12 [Example I-125-b, (S)-1-(3,3-difluoro-1-(3-(methylamino)-1H-pyrazolo[3,4-b]pyridin-5-yl)piperidin-4-yl)-1-methyl-3-(1-methyl-2-oxo-5-(trifluoromethyl)-1,2-dihydropyridin-3-yl)urea]
< 10 nM | C[C@H]1C[C@@H](N(C)C(=O)Nc2cc(C(F)(F)F)cn(C)c2=O)CCN1c1cnc2[nH]ccc2n1 [Example I-126-a, 1-methyl-1-((2S,4S)-2-methyl-1-(5H-pyrrolo[2,3-b]pyrazin-2-yl)piperidin-4-yl)-3-(1-methyl-2-oxo-5-(trifluoromethyl)-1,2-dihydropyridin-3-yl)urea]
< 10 nM | C[C@@H]1C[C@H](N(C)C(=O)Nc2cc(C(F)(F)F)cn(C)c2=O)CCN1c1cnc2[nH]ccc2n1 [Example I-126-b, 1-methyl-1-((2R,4R)-2-methyl-1-(5H-pyrrolo[2,3-b]pyrazin-2-yl)piperidin-4-yl)-3-(1-methyl-2-oxo-5-(trifluoromethyl)-1,2-dihydropyridin-3-yl)urea]
< 10 nM | Cn1cc(C(F)(F)F)cc(NC(=O)N2CCO[C@@H]3CN(c4cnc5[nH]ccc5n4)CC[C@H]32)c1=O [Example I-128-b, (4aR,8aR)-N-(1-methyl-2-oxo-5-(trifluoromethyl)-1,2-dihydropyridin-3-yl)-6-(5H-pyrrolo[2,3-b]pyrazin-2-yl)octahydro-1H-pyrido[3,4-b][1,4]oxazine-1-carboxamide]
< 10 nM | COc1n[nH]c2ncc(N3CC[C@H](N(C)C(=O)Nc4cc(C(F)(F)F)cn(C)c4=O)[C@H](C)C3)cc12 [Example I-131-a, 1-((3R,4S)-1-(3-methoxy-1H-pyrazolo[3,4-b]pyridin-5-yl)-3-methylpiperidin-4-yl)-1-methyl-3-(1-methyl-2-oxo-5-(trifluoromethyl)-1,2-dihydropyridin-3-yl)urea]
